Legend:
[1] = target: T1, EGFR (Homo sapiens, UniProt P00533); test: EGF receptor ELISA in cells engineered to express human EGF-R; assay type: cell-based; conditions: 50% inhibition of PTK activity over control
T1 construct: expressed in transfected cells; host or cells: NIH 3T3/C7
Method: (§1) The cellular/catalytic assays described herein are performed in an ELISA format. The general procedure is a follows: a compound is introduced to cells expressing the test kinase, either naturally or recombinantly, for some period of time after which, if the test kinase is a receptor, a ligand known to activate the receptor's activity is added. The cells are lysed and the lysate is transferred to the wells of an ELISA plate previously coated with a specific antibody recognizing the substrate of the enzymatic phosphorylation reaction. Non-substrate components of the cell lysate are washed away and the amount of phosphorylation on the substrate is detected with an antibody specifically recognizing phosphotyrosine compared with control cells that were not contacted with a test compound.
EGF Receptor kinase activity in cells genetically engineered to express human EGF-R can be measured as described below:
The following materials and reagents are used
a. EGF Ligand: stock concentration=16.5 μM; EGF 201, TOYOBO, Co., Ltd. Japan.
b. 05-101 (UBI) (a monoclonal antibody recognizing an EGFR extracellular domain).
c. Anti-phosphotyosine antibody (anti-Ptyr) (polyclonal).
d. Detection antibody: Goat anti-rabbit lgG horse radish peroxidase conjugate, TAGO, Inc., Burlingame, Calif.
Keep solution in dark at 4 C until used.
The following protocol is used:
1. Coat ELISA plates (Corning, 96 well, Cat. #25805-96) with 05-101 antibody at 0.5 μg per well in PBS, 150 μL final volume/well, and store overnight at 4° C. Coated plates are good for up to 10 days when stored at 4° C.
2. On day of use, remove coating buffer and replace with blocking buffer (5% Carnation Instant NonFat Dry Milk in PBS). Incubate the plate, shaking, at room temperature (about 23° C. to 25° C.) for 30 minutes. Just prior to use, remove blocking buffer and wash plate 4 times with TBST buffer.
1. NIH 3T3/C7 cell line (Honegger, et al., Cell 51:199-209, 1987) can be use for this assay.
2. Choose dishes having 80-90% confluence for the experiment. Trypsinize cells and stop reaction by adding 10% CS DMEM medium. Suspend cells in DMEM medium (10% CS DMEM medium) and centrifuge once at 1000 rpm at room temperature for 5 minutes.
3. Resuspend cells in seeding medium (DMEM, 0.5% bovine serum), and count the cells using trypan blue. Viability above 90% is acceptable. Seed cells in DMEM medium (0.5% bovine serum) at a density of 10,000 cells per well, 100 μL per well, in a 96 well microtiter plate. Incubate seeded cells in 5% CO2 at 37° C. for about 40 hours.
1. Check seeded cells for contamination using an inverted microscope. Dilute drug stock (10 mg/mL in DMSO) 1:10 in DMEM medium, then transfer 5 μL to a test well for a final drug dilution of 1:200 and a final DMSO concentration of 1%. Control wells receive DMSO alone. Incubate in 5% CO2 at 37° C. for one hour.
2. Prepare EGF ligand: dilute stock EGF in DMEM so that upon transfer of 10 μL dilute EGF (1:12 dilution), 25 nM final concentration is attained.
3. Prepare fresh 10 mL HNTG* sufficient for 100 μL per well wherein HNTG* comprises: HNTG stock (2.0 mL), milli-Q H2O (7.3 mL), EDTA, 100 mM, pH 7.0 (0.5 mL), Na3VO4 0.5 M (0.1 mL) and Na4(P2O7), 0.2 M (0.1 mL).
5. After two hours incubation with drug, add prepared EGF ligand to cells, 10 μL per well, to yield a final concentration of 25 nM. Control wells receive DMEM alone. Incubate, shaking, at room temperature, for 5 minutes.
6. Remove drug, EGF, and DMEM. Wash cells twice with PBS. Transfer HNTG* to cells, 100 μL per well. Place on ice for 5 minutes. Meanwhile, remove blocking buffer from other ELISA plate and wash with TBST as described above.
7. With a pipette tip securely fitted to a micropipettor, scrape cells from plate and homogenize cell material by repeatedly aspirating and dispensing the HNTG* lysis buffer. Transfer lysate to a coated, blocked, and washed ELISA plate. Incubate shaking at room temperature for one hour.
8. Remove lysate and wash 4 times with TBST. […]

[2] = target: T2, IGF-1R (Homo sapiens, UniProt P08069); test: IGF-I receptor ELISA in 3T3/IGF-1R cells; assay type: cell-based; conditions: 50% inhibition of PTK activity over control
T2 construct: expressed in transfected cells; host or cells: NIH3T3 (3T3/IGF-1R)
T2 sequence (P08069 31-1367, species assumed): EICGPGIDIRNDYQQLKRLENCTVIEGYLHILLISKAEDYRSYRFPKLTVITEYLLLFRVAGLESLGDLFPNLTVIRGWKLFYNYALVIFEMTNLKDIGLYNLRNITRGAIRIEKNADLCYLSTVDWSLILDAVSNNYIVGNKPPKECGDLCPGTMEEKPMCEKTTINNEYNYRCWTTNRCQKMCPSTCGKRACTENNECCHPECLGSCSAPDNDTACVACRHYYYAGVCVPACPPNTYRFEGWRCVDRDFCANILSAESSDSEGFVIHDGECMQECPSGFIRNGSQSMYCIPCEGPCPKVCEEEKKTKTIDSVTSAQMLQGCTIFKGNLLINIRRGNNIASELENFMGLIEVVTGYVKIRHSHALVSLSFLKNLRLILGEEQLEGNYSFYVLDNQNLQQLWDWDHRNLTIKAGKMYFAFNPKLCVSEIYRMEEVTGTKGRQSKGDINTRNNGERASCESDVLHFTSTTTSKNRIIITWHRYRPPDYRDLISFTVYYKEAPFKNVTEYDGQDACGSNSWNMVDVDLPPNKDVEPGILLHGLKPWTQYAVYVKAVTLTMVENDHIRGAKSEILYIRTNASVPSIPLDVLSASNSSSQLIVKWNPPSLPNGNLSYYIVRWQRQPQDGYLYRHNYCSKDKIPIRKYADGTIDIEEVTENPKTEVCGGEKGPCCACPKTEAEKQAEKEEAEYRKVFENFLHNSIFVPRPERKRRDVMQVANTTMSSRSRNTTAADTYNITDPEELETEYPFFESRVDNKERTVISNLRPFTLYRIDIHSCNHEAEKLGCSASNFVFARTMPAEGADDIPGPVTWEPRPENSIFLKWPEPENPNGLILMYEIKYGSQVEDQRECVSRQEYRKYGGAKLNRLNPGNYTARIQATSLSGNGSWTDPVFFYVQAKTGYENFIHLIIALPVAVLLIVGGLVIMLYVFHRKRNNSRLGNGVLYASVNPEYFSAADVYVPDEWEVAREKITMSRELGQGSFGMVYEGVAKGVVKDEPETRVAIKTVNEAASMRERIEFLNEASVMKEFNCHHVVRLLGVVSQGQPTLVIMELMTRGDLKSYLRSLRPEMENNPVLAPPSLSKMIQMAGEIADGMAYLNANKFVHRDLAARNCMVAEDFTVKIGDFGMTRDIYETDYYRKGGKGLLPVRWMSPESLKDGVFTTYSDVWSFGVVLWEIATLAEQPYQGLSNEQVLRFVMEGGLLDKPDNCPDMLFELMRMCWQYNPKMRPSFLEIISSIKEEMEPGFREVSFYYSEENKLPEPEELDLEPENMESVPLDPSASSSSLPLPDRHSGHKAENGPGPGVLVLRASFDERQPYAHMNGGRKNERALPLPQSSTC
Method: as §1
The following protocol may be used to measure phosphotyrosine level on IGF-I receptor, which indicates IGF-I receptor tyrosine kinase activity.
The following materials and reagents are used:
a. The cell line used in this assay is 3T3/IGF-1R, a cell line genetically engineered to overexpresses IGF-1 receptor.
b. NIH3T3/IGF-1R is grown in an incubator with 5% CO2 at 37° C. The growth media is DMEM+10% FBS (heat inactivated)+2 mM L-glutamine.
c. Affinity purified anti-IGF-1R antibody 17-69.
e. Blocking Buffer: TBST plus 5% Milk (Carnation Instant Non-Fat Dry Milk).
Stock solution of TBS (10×) is prepared, and Triton X-100 is added to the buffer during dilution.
Stock solution (5×) is prepared and kept at 4° C.
h. EDTA/HCl: 0.5 M pH 7.0 (NaOH) as 100×stock.
i. Na3VO4: 0.5 M as 100×stock and aliquots are kept in −80° C.
k. Insulin-like growth factor-1 from Promega (Cat# G5111).
l. Rabbit polyclonal anti-phosphotyrosine antiserum.
m. Goat anti-rabbit IgG, POD conjugate (detection antibody), Tago (Cat. No. 4520, Lot No. 1802): Tago, Inc., Burlingame, Calif.
n. ABTS (2,2′-azinobis(3-ethylbenzthiazolinesulfonic acid)) solution:
ABTS solution should be kept in dark and 4° C. The solution should be discarded when it turns green.
o. Hydrogen Peroxide: 30% solution is kept in the dark and at 4° C.
All the following steps are conducted at room temperature unless it is specifically indicated. All ELISA plate washings are performed by rinsing the plate with tap water three times, followed by one TBST rinse. Pat plate dry with paper towels.
1. The cells, grown in tissue culture dish (Corning 25020-100) to 80-90% confluence, are harvested with Trypsin-EDTA (0.25%, 0.5 mL/D-100, GIBCO).
2. Resuspend the cells in fresh DMEM+10% FBS+2 mM L-Glutamine, and transfer to 96-well tissue culture plate (Corning, 25806-96) at 20,000 cells/well (100 μL/well). Incubate for 1 day then replace medium to serum-free medium (90/μL) and incubate in 5% CO2 and 37° C. overnight.
B. ELISA Plate Coating and Blocking:
1. Coat the ELISA plate (Corning 25805-96) with Anti-IGF-1R Antibody at 0.5 μg/well in 100 μL PBS at least 2 hours.
2. Remove the coating solution, and replace with 100 μL Blocking Buffer, and shake for 30 minutes. Remove the blocking buffer and wash the plate just before adding lysate.
1. The drugs are tested in serum-free condition.
2. Dilute drug stock (in 100% DMSO) 1:10 with DMEM in 96-well poly-propylene plate, and transfer 10 μL/well of this solution to the cells to achieve final drug dilution 1:100, and final DMSO concentration of 1.0%. Incubate the cells in 5% CO2 at 37° C. for 2 hours.
3. Prepare fresh cell lysis buffer (HNTG*)
4. After drug incubation for two hours, transfer 10 μL/well of 200 nM IGF-1 Ligand in PBS to the cells (Final Conc.=20 nM), and incubate at 5% CO2 at 37° C. for 10 minutes.
5. Remove media and add 100 μL/well HNTG* and shake for 10 minutes. Look at cells under microscope to see if they are adequately lysed.
6. Use a 12-channel pipette to scrape the cells from the plate, and homogenize the lysate.by repeated aspiration and dispensing. Transfer all the lysate to the antibody coated ELISA plate, and shake for 1 hour.
7. […]

T1 sequence (P00533 25-1210): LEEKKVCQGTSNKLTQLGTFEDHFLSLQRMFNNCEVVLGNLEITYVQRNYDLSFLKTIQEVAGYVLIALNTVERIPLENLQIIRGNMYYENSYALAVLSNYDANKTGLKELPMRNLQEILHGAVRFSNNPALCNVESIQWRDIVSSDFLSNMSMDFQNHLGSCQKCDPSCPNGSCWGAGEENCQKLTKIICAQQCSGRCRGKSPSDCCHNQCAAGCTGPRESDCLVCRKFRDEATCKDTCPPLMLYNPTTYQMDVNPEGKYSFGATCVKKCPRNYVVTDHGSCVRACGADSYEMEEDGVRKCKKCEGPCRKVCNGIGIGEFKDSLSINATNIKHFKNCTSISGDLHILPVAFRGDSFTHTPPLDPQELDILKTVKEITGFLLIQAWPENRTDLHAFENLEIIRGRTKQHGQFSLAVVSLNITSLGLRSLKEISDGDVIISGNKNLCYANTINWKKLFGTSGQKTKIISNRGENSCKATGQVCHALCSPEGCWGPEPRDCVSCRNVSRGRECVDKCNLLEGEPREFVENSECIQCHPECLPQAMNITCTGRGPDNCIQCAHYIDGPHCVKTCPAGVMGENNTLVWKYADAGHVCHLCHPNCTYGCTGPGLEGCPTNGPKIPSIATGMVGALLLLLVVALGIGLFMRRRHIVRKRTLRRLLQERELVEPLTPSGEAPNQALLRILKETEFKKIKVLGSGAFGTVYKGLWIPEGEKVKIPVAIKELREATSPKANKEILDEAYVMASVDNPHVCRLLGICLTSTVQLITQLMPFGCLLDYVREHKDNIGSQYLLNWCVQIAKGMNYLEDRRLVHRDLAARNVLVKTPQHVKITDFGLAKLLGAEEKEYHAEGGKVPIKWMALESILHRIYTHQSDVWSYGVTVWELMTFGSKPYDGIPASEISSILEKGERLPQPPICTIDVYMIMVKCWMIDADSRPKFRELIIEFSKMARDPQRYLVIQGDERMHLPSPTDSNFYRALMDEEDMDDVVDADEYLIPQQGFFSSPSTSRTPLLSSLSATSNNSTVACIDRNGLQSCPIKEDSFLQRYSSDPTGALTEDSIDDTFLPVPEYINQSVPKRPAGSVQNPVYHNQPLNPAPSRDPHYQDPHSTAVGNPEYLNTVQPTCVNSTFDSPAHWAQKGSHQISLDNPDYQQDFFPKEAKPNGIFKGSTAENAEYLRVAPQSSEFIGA

Row | IC50 [1] [µM] | IC50 [2] [µM] | Compound
1 | > 100 | > 100 | CCOC(=O)c1c(C)[nH]c(C=C2C(=O)Nc3ccccc32)c1C [3-(2,4-dimethyl-3-ethoxycarbonylpyrrol-5-methylidenyl)-2-indolinone]
2 | > 100 | > 100 | CCc1c(C=C2C(=O)Nc3ccccc32)[nH]c(C(=O)O)c1C [3-(2-carboxy-4-ethyl-3-methylpyrrol-5-methylidenyl)-2-indolinone]

Reference: patent publication US6486185B1, “3-heteroarylidene-2-indolinone protein kinase inhibitors” (Sugen, Inc., priority 1997, dated 2002)
